#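 48-hour exposure; five concentrations; linearly interpolated endpoints. The concentration for full growth arrest is given as TGI.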
# Legend:
# Experiment in all cases: NCI-60 cell line screen, 48 h
# SK-MEL-2 melanoma = test system: SK-MEL-2 melanoma
# SW-620 colon = test system: SW-620 colon
# HCT-116 colon = test system: HCT-116 colon
# BT-549 breast = test system: BT-549 breast
# MDA-N = test system: MDA-N
# OVCAR-4 ovarian = test system: OVCAR-4 ovarian
# HT29 colon = test system: HT29 colon
# EKVX NSCLC = test system: EKVX NSCLC
# SK-MEL-5 melanoma = test system: SK-MEL-5 melanoma
# HS 578T breast = test system: HS 578T breast
# HCT-15 colon = test system: HCT-15 colon
# T-47D breast = test system: T-47D breast
# OVCAR-8 ovarian = test system: OVCAR-8 ovarian
# SN12C renal = test system: SN12C renal
# UO-31 renal = test system: UO-31 renal
# ACHN renal = test system: ACHN renal
# U251 CNS = test system: U251 CNS
# UACC-62 melanoma = test system: UACC-62 melanoma
# SF-539 CNS = test system: SF-539 CNS
# IGROV1 ovarian = test system: IGROV1 ovarian
# UACC-257 melanoma = test system: UACC-257 melanoma
# SF-295 CNS = test system: SF-295 CNS
# K-562 leukemia = test system: K-562 leukemia
# NCI-H522 lung = test system: NCI-H522 lung
# MALME-3M melanoma = test system: MALME-3M melanoma
# OVCAR-5 ovarian = test system: OVCAR-5 ovarian
# A498 renal = test system: A498 renal
# MDA-MB-435 = test system: MDA-MB-435
# SNB-19 CNS = test system: SNB-19 CNS
# CCRF-CEM leukemia = test system: CCRF-CEM leukemia
# NCI-H460 lung = test system: NCI-H460 lung
# NCI/ADR-RES ovarian = test system: NCI/ADR-RES ovarian
# SR leukemia = test system: SR leukemia
# SK-OV-3 ovarian = test system: SK-OV-3 ovarian
# RPMI-8226 leukemia = test system: RPMI-8226 leukemia
# LOX IMVI melanoma = test system: LOX IMVI melanoma
# MDA-MB-231 breast = test system: MDA-MB-231 breast
# HOP-92 NSCLC = test system: HOP-92 NSCLC
# OVCAR-3 ovarian = test system: OVCAR-3 ovarian
# NCI-H226 lung = test system: NCI-H226 lung
# M14 melanoma = test system: M14 melanoma
# SK-MEL-28 melanoma = test system: SK-MEL-28 melanoma
# HOP-62 NSCLC = test system: HOP-62 NSCLC
# HCC-2998 colon = test system: HCC-2998 colon
# KM12 colon = test system: KM12 colon
# PC-3 prostate = test system: PC-3 prostate
# MCF7 breast = test system: MCF7 breast
# SF-268 CNS = test system: SF-268 CNS
# CAKI-1 renal = test system: CAKI-1 renal
# A549 NSCLC = test system: A549 NSCLC
# RXF 393 renal = test system: RXF 393 renal
# 786-0 renal = test system: 786-0 renal
# TK-10 renal = test system: TK-10 renal
# COLO 205 colon = test system: COLO 205 colon
# NCI-H23 lung = test system: NCI-H23 lung
# DU-145 prostate = test system: DU-145 prostate
# SNB-75 CNS = test system: SNB-75 CNS
# MOLT-4 leukemia = test system: MOLT-4 leukemia
# HL-60(TB) leukemia = test system: HL-60(TB) leukemia
smiles,measurement,setting,value
C=C1C(=O)O[C@H]2C[C@@]3(C)[C@H](O)CCC(=C)[C@@H]3[C@@H](OC(C)=O)[C@H]12,TGI,SK-MEL-2 melanoma,37.6 µM
same,TGI,SW-620 colon,> 100 µM
same,TGI,HCT-116 colon,22.2 µM
same,TGI,BT-549 breast,25 µM
same,TGI,MDA-N,20.6 µM
same,TGI,OVCAR-4 ovarian,20.8 µM
same,TGI,HT29 colon,25.9 µM
same,TGI,EKVX NSCLC,38.1 µM
same,TGI,SK-MEL-5 melanoma,26.4 µM
same,TGI,HS 578T breast,38.5 µM
same,TGI,HCT-15 colon,7.93 µM
same,TGI,T-47D breast,29.5 µM
same,TGI,OVCAR-8 ovarian,50.4 µM
same,TGI,SN12C renal,29.5 µM
same,TGI,UO-31 renal,27 µM
same,TGI,ACHN renal,12.9 µM
same,TGI,U251 CNS,> 71.3 µM
same,TGI,UACC-62 melanoma,37.3 µM
same,TGI,SF-539 CNS,10.2 µM
same,TGI,IGROV1 ovarian,30 µM
same,TGI,UACC-257 melanoma,34.8 µM
same,TGI,SF-295 CNS,40.5 µM
same,TGI,K-562 leukemia,> 23.3 µM
same,TGI,NCI-H522 lung,4.13 µM
same,TGI,MALME-3M melanoma,3.52 µM
same,TGI,OVCAR-5 ovarian,25.3 µM
same,TGI,A498 renal,44.2 µM
same,TGI,MDA-MB-435,44.4 µM
same,TGI,SNB-19 CNS,31.5 µM
same,TGI,CCRF-CEM leukemia,2.96 µM
same,TGI,NCI-H460 lung,25.7 µM
same,TGI,NCI/ADR-RES ovarian,76.8 µM
same,TGI,SR leukemia,> 20 µM
same,TGI,SK-OV-3 ovarian,> 83.6 µM
same,TGI,RPMI-8226 leukemia,68.7 µM
same,TGI,LOX IMVI melanoma,19.7 µM
same,TGI,MDA-MB-231 breast,36.6 µM
same,TGI,HOP-92 NSCLC,16 µM
same,TGI,OVCAR-3 ovarian,26.9 µM
same,TGI,NCI-H226 lung,49.2 µM
same,TGI,M14 melanoma,25.2 µM
same,TGI,SK-MEL-28 melanoma,> 65.9 µM
same,TGI,HOP-62 NSCLC,32.8 µM
same,TGI,HCC-2998 colon,30.3 µM
same,TGI,KM12 colon,36 µM
same,TGI,PC-3 prostate,37.3 µM
same,TGI,MCF7 breast,9.84 µM
same,TGI,SF-268 CNS,> 52.2 µM
same,TGI,CAKI-1 renal,3.23 µM
same,TGI,A549 NSCLC,33.7 µM
same,TGI,RXF 393 renal,14.7 µM
same,TGI,786-0 renal,32 µM
same,TGI,TK-10 renal,24.1 µM
same,TGI,COLO 205 colon,7.06 µM
same,TGI,NCI-H23 lung,27.6 µM
same,TGI,DU-145 prostate,26.6 µM
same,TGI,SNB-75 CNS,29.2 µM
same,TGI,MOLT-4 leukemia,> 31 µM
COc1ccc(C2C(C#N)=C(S)N(C3OC(CO)C(O)C(O)C3O)C(c3ccccc3)=C2C(C)=O)cc1 (stereo not drawn),TGI,SK-MEL-2 melanoma,> 100 µM
same,TGI,SW-620 colon,> 100 µM
same,TGI,HCT-116 colon,> 100 µM
same,TGI,BT-549 breast,> 100 µM
same,TGI,MDA-N,> 100 µM
same,TGI,HT29 colon,> 100 µM
same,TGI,SK-MEL-5 melanoma,60.7 µM
same,TGI,HS 578T breast,> 100 µM
same,TGI,HCT-15 colon,> 100 µM
same,TGI,T-47D breast,69.9 µM
same,TGI,OVCAR-8 ovarian,> 100 µM
same,TGI,SN12C renal,> 100 µM
same,TGI,UO-31 renal,> 100 µM
same,TGI,ACHN renal,> 100 µM
same,TGI,U251 CNS,> 100 µM
same,TGI,UACC-62 melanoma,> 100 µM
same,TGI,SF-539 CNS,> 100 µM
same,TGI,IGROV1 ovarian,> 100 µM
same,TGI,UACC-257 melanoma,> 100 µM
same,TGI,SF-295 CNS,> 100 µM
same,TGI,K-562 leukemia,> 100 µM
same,TGI,NCI-H522 lung,88.9 µM
same,TGI,MALME-3M melanoma,> 100 µM
same,TGI,OVCAR-5 ovarian,> 100 µM
same,TGI,A498 renal,> 100 µM
same,TGI,MDA-MB-435,> 100 µM
same,TGI,SNB-19 CNS,> 100 µM
same,TGI,CCRF-CEM leukemia,> 100 µM
same,TGI,NCI-H460 lung,> 100 µM
same,TGI,NCI/ADR-RES ovarian,> 100 µM
same,TGI,SR leukemia,> 100 µM
same,TGI,RPMI-8226 leukemia,> 100 µM
same,TGI,LOX IMVI melanoma,> 100 µM
same,TGI,MDA-MB-231 breast,> 100 µM
same,TGI,HOP-92 NSCLC,> 100 µM
same,TGI,OVCAR-3 ovarian,> 100 µM
same,TGI,NCI-H226 lung,> 100 µM
same,TGI,M14 melanoma,> 100 µM
same,TGI,SK-MEL-28 melanoma,> 100 µM
same,TGI,HOP-62 NSCLC,> 100 µM
same,TGI,HL-60(TB) leukemia,> 100 µM
same,TGI,HCC-2998 colon,> 100 µM
same,TGI,KM12 colon,> 100 µM
same,TGI,PC-3 prostate,> 100 µM
same,TGI,MCF7 breast,> 100 µM
same,TGI,SF-268 CNS,> 100 µM
same,TGI,A549 NSCLC,> 100 µM
same,TGI,RXF 393 renal,> 100 µM
same,TGI,786-0 renal,> 100 µM
same,TGI,TK-10 renal,> 100 µM
same,TGI,COLO 205 colon,> 100 µM
same,TGI,NCI-H23 lung,> 100 µM
same,TGI,DU-145 prostate,> 100 µM
same,TGI,SNB-75 CNS,97 µM
same,TGI,MOLT-4 leukemia,> 100 µM
